From patent US7960561B2, “2-(phenylamino) benzimidazole derivatives and their use as modulators of small-conductance calcium-activated potassium channels” (Neurosearch A/S, priority 2005, dated 2011)
Structures can show the parent of a compound that is named as a salt.

| SMILES | melting point |
| --- | --- |
| Fc1ccc(Nc2nc3ccccc3[nH]2)cc1 (as salt: hydrochloride) [Example 7, N-(Benzimidazol-2-yl)-4-fluoroaniline] | 215 to 216 °C |
| COc1cc(Nc2nc3ccccc3[nH]2)cc(C(F)(F)F)c1 (as salt: hydrochloride) [Example 24, N-(Benzoimidazol-2-yl)-3-methoxy-5-(trifluoromethyl)aniline] | 212 to 213 °C |
| Fc1ccc(Nc2nc3ccccc3[nH]2)cc1Cl (as salt: hydrochloride) [Example 14, N-(Benzimidazol-2-yl)-3-chloro-4-fluoroaniline] | 306 to 307 °C |
| Fc1ccc(Nc2nc3ccccc3[nH]2)cc1C(F)(F)F (as salt: hydrochloride) [Example 11, N-(Benzimidazol-2-yl)-4-fluoro-3-(trifluoromethyl)aniline] | 255 to 257 °C |
| Fc1cc(Nc2nc3ccccc3[nH]2)cc(C(F)(F)F)c1 (as salt: hydrochloride) [Example 18, N-(Benzimidazol-2-yl)-3-fluoro-5-(trifluoromethyl)aniline] | 263 to 265 °C |
| N#Cc1cccc(Nc2nc3ccccc3[nH]2)c1 [Example 23, N-(Benzoimidazol-2-yl)-3-cyanoaniline] | 272 to 274 °C |
| Fc1ccc(Nc2nc3ccccc3[nH]2)c(F)c1F [Example 21, N-(Benzimidazol-2-yl)-2,3,4-trifluoroaniline] | 182 to 183 °C |
| FC(F)(F)c1cccc(Nc2nc3ccccc3[nH]2)c1 [Example 10, N-(Benzimidazol-2-yl)-3-(trifluoromethyl)aniline] | 160 to 162 °C |
| Clc1cccc(Nc2nc3ccccc3[nH]2)c1 (as salt: hydrochloride) [Example 5, N-(Benzimidazol-2-yl)-3-chloroaniline] | 252 to 257 °C |
| FC(F)(F)c1cc(Nc2nc3ccccc3[nH]2)ccc1Cl (as salt: hydrochloride) [Example 2, N-(Benzimidazol-2-yl)-4-chloro-3-(trifluoromethyl)aniline] | 255 to 260 °C |
| Clc1ccc(Nc2nc3ccccc3[nH]2)cc1Cl (as salt: hydrochloride) [Example 3, N-(Benzimidazol-2-yl)-3,4-dichloroaniline] | > 270 °C |
| Fc1cc(F)cc(Nc2nc3ccccc3[nH]2)c1 (as salt: hydrochloride) [Example 9, N-(Benzimidazol-2-yl)-3,5-difluoroaniline] | 292 to 293 °C |
| Fc1c(Nc2nc3ccccc3[nH]2)cccc1C(F)(F)F [Example 20, N-(Benzimidazol-2-yl)-2-fluoro-3-(trifluoromethyl)aniline] | 91 to 92 °C |
| Cc1cc(Nc2nc3ccccc3[nH]2)ccc1F (as salt: hydrochloride) [Example 12, N-(Benzimidazol-2-yl)-4-fluoro-3-methylaniline] | 246 to 248 °C |
| Cc1c(Nc2nc3ccccc3[nH]2)cccc1C(F)(F)F [Example 19, N-(Benzimidazol-2-yl)-2-methyl-3-(trifluoromethyl)aniline] | 204 to 206 °C |
| Clc1cc(Cl)cc(Nc2nc3ccccc3[nH]2)c1 (as salt: hydrochloride) [Example 15, N-(Benzimidazol-2-yl)-3,5-dichloroaniline] | 317 to 318 °C |
| Fc1ccc(Nc2nc3ccccc3[nH]2)cc1F (as salt: hydrochloride) [Example 8, N-(Benzimidazol-2-yl)-3,4-difluoroaniline] | 283 to 284 °C |
| FC(F)(F)Oc1ccc(Nc2nc3ccccc3[nH]2)cc1 (as salt: hydrochloride) [Example 6, N-(Benzimidazol-2-yl)-4-(trifluoromethoxy)aniline] | 250 to 251 °C |
| FC(F)(F)c1ccc(Nc2nc3ccccc3[nH]2)cc1 [Example 4, N-(Benzimidazol-2-yl)-4-(trifluoromethyl)aniline] | 199 to 200 °C |
| FC(F)(F)c1cc(Nc2nc3ccccc3[nH]2)ccc1Br (as salt: hydrochloride) [Example 16, N-(Benzimidazol-2-yl)-4-bromo-3-(trifluoromethyl)aniline] | 262 to 264 °C |
| c1ccc(-c2ccccc2Nc2nc3ccccc3[nH]2)cc1 [Example 28, N-(Benzoimidazol-2-yl)-2-phenylaniline] | 152 to 154 °C |
| CC(C)c1ccc(Nc2nc3ccccc3[nH]2)cc1 [Example 25, N-(Benzoimidazol-2-yl)-4-isopropylaniline] | 179 to 180 °C |
| Cc1ccc(Nc2nc3ccccc3[nH]2)cc1C(F)(F)F (as salt: hydrochloride) [Example 17, N-(Benzimidazol-2-yl)-4-methyl-3-(trifluoromethyl)aniline] | > 265 °C |
| Clc1ccc(Nc2nc3ccccc3[nH]2)cc1 (as salt: hydrochloride) [Example 1, N-(Benzimidazol-2-yl)-4-chloroaniline] | 238 to 240 °C |
| CN(c1ccc(Cl)c(Cl)c1)c1nc2ccccc2[nH]1 (as salt: hydrochloride) [Example 22, N-(Benzoimidazol-2-yl)-N-methyl-3,4-dichloroaniline] | > 275 °C |
| FC(F)(F)c1cc(Nc2nc3ccccc3[nH]2)cc(C(F)(F)F)c1 (as salt: hydrochloride) [Example 13, N-(Benzimidazol-2-yl)-3,5-bis(trifluoromethyl)aniline] | 245 to 246 °C |
